Data published in US20190388421A1, “NOVEL COMPOUNDS AND PHARMACEUTICAL COMPOSITIONS THEREOF FOR THE TREATMENT OF FIBROSIS” (Galapagos NV, priority 2016, published 2019).

What was measured:
[1] = target: T1, human GPCR sphingosine 1-phosphate receptor 1 (S1PR1) (Homo sapiens, UniProt P21453); test: S1PR1 selectivity assay (Ca2+ flux, antagonist); type: cell-based; conditions: S1P1 antagonist EC50, CHO cells overexpressing human S1PR1 and Gq protein
T1 construct: host or cells: CHO
Summary of the method: (§1)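 CHO cells stably overexpressing human S1PR1 or S1PR5 with Gq were preincubated with compound 15 min at 37 °C, then stimulated with S1P at EC80 (S1PR1) or an S1PR5-specific agonist (S1PR5). Ca2+ fluorescence was read for 3 min; 10-point 1/3 dilutions from 20 μM final, normalized to vehicle and EC80 trigger, gave EC50.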

[2] = target: T2, human GPCR sphingosine 1-phosphate receptor 2 (S1PR2) (Homo sapiens, UniProt O95136); test: S1P2 antagonist assay (Ca2+ flux, S1P at EC80); type: cell-based; conditions: CHO-S1PR2 cells, highest concentration 20 μM
T2 construct: host or cells: CHO
Summary of the method: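 CHO cells stably overexpressing human S1PR2, serum-starved 1 h and loaded with Fluo8 dye, were read for 3 min after compound addition, then stimulated with S1P at EC80 after 15 min at 37 °C. Top concentration 20 μM in a 10-point 1/3 series; Ca2+ fluorescence ratio normalized to vehicle and S1P EC80, giving EC50.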

[3] = tested on: HFL-1 cells; test: IL8 assay in the presence of Human Serum Albumin; type: cell-based; conditions: HFL1, S1P (5 μM) induced IL-8, HFL-1 cells, with 2% HSA, read-out: HSA IL8 EC50
Summary of the method: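 Cells serum-starved with 1.95% HSA, pre-treated 1 h with compound (10-point 1/3 dilution from 30 μM, 0.3% DMSO), then stimulated with 5 μM S1P for 16 to 24 h at 37° C. Supernatant IL-8 measured by ELISA.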

[4] = tested on: HFL-1 cells; test: IL8 assay (S1P induced IL-8 production); type: cell-based; conditions: Homo sapiens, HFL1; S1P (1 μM) induced IL-8, HFL-1 cells, without HSA
Summary of the method: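 Serum-starved human fetal lung fibroblasts were preincubated with compound for 1 h at 37° C (10-point, 1/3 dilution, top 30 μM, 0.3% DMSO). S1P at 1 μM final was then added for 16–24 h, and IL-8 in the supernatant was measured by ELISA.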

[5] = target: T3, human GPCR sphingosine 1-phosphate receptor 5 (S1PR5) (Homo sapiens, UniProt Q9H228); test: S1PR5 selectivity assay (Ca2+ flux, antagonist, S1PR5 specific agonist trigger); type: cell-based; conditions: S1P5 antagonist EC50, CHO cells overexpressing human S1PR5 and Gq protein
T3 construct: host or cells: CHO
Summary of the method: as §1

[6] = target: T4, S1PR2 (Homo sapiens, UniProt O95136); test: GTP-γS binding assay ([35S]GTPγS, S1P at EC80, S1PR2 membranes); type: biochemical; conditions: membranes from stable cell line over expressing S1PR2, read-out: S1PR2 EC
T4 construct: expressed in transfected cells
Summary of the method: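 Compounds tested against S1P at its EC80 on membranes (2.5 μg/well) from a stable S1PR2-overexpressing line, pre-incubated with 1 μM GDP 15 min at 4 °C. Buffer: 20 mM Tris pH 7.5, 10 mM MgCl2, 100 mM NaCl, 0.1% fatty-acid-free BSA, 50 ug/ml saponin. Incubated 4 h at room temperature; [35S]GTPγS binding read by WGA SPA beads.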

T3 sequence (Q9H228 whole entry): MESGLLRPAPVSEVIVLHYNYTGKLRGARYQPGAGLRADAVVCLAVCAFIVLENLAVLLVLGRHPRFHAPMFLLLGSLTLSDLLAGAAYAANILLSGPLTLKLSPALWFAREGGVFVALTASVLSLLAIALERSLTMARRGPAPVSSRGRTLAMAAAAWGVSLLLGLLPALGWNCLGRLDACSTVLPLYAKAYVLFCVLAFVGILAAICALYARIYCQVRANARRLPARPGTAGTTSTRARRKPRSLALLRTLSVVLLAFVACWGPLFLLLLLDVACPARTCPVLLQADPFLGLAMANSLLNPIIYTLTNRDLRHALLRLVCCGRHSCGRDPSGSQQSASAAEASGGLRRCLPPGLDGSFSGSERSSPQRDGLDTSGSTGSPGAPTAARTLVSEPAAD
T2 sequence (O95136 whole entry): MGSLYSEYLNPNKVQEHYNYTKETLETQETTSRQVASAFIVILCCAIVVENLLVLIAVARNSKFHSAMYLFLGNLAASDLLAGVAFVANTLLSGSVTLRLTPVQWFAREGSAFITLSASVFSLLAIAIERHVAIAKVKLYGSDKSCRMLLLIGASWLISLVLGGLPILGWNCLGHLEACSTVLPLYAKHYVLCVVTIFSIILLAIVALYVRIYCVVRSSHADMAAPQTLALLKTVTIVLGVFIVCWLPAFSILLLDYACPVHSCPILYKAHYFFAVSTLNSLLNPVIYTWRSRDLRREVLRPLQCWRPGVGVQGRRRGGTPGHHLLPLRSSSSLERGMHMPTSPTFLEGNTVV
T4 sequence (O95136 whole entry): as above
T1 sequence (P21453 whole entry): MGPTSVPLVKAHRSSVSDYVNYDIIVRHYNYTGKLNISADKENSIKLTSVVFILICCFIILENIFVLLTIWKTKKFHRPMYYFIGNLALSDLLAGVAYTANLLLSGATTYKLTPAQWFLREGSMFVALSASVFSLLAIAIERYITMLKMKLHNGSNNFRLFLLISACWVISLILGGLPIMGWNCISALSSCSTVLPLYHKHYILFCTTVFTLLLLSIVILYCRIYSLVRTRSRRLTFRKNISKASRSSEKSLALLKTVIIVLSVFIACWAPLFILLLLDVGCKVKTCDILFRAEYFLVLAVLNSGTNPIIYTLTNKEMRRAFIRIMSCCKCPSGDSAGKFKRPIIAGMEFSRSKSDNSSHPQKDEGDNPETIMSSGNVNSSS

EC50 [1]	EC50 [2]	IC50 [3]	EC50 [4]	EC50 [5]	EC50 [6]	SMILES
≥ 19800 nM	74.5 nM	185 nM	61.9 nM	≥ 19800 nM	242 nM	CCOc1cc(NC(=O)NCc2cc(C)c(-c3cn(C)nc3C(F)(F)F)nn2)cc(C)n1 [Compound 35, 1-(2-ethoxy-6-methyl-4-pyridyl)-3-[[5-methyl-6-[1-methyl-3-(trifluoromethyl)pyrazol-4-yl]pyridazin-3-yl]methyl]urea]
≥ 19800 nM	188 nM	10000 nM	432 nM	≥ 19800 nM	469 nM	Cc1cc(CNC(=O)Nc2cc(Cl)nc(OCC(F)F)c2)nnc1N1CC(S(C)(=O)=O)C1 [Compound 92, 1-[2-chloro-6-(2,2-difluoroethoxy)-4-pyridyl]-3-[[5-methyl-6-(3-methylsulfonyl-azetidin-1-yl)pyridazin-3-yl]methyl]urea]
≥ 19800 nM	529 nM	2840 nM	1250 nM	≥ 19800 nM	919 nM	Cc1cc(CNC(=O)Nc2cc(Cl)nc(OCC(F)F)c2)nnc1N1CCC(S(C)(=O)=O)C1 (stereo not drawn) [Compound 91, 1-[2-chloro-6-(2,2-difluoroethoxy)-4-pyridyl]-3-[[5-methyl-6-(3-methylsulfonyl-pyrrolidin-1-yl)pyridazin-3-yl]methyl]urea]
6610 nM	6 nM	730 nM	53.5 nM	341 nM	156 nM	CCOc1cc(NC(=O)NCc2cc(C)c(N3CC(C)OC(C)C3)nn2)cc(Cl)n1 (stereo not drawn) [Compound 82, 1-(2-Chloro-6-ethoxy-pyridin-4-yl)-3-[6-(2,6-dimethyl-morpholin-4-yl)-5-methyl-pyridazin-3-ylmethyl]-urea]
3800 nM	34 nM	1580 nM	33 nM	839 nM	422 nM	Cc1cc(CNC(=O)Nc2cc(Cl)nc(OCC(F)F)c2)nnc1N1CCOC(C(F)(F)F)C1 (stereo not drawn) [Compound 89, 1-[2-chloro-6-(2,2-difluoroethoxy)-4-pyridyl]-3-[[5-methyl-6-[2-(trifluoromethyl)morpholin-4-yl]pyridazin-3-yl]methyl]urea]

Second part, the compound before the results:

SMILES	EC50 [1]	EC50 [2]	IC50 [3]	EC50 [4]	EC50 [5]	EC50 [6]
CCOc1nc(C)cc(N/C(=N/C#N)NCc2cc(C)c(-c3cn(C)nc3C(F)(F)F)nn2)c1C [Compound 78, 2-cyano-1-(2-ethoxy-3,6-dimethyl-4-pyridyl)-3-[[5-methyl-6-[1-methyl-3-(trifluoromethyl)pyrazol-4-yl]pyridazin-3-yl]methyl]guanidine]	≥ 19800 nM	106 nM	1250 nM	1090 nM	≥ 19800 nM	863 nM
Cn1cc(-c2nnc(CNC(=O)Nc3cc(Cl)nc(OCC(F)F)c3)cc2N2CC(F)(F)C2)c(C(F)(F)F)n1 [Compound 60, 1-[2-chloro-6-(2,2-difluoroethoxy)-4-pyridyl]-3-[[5-(3,3-difluoroazetidin-1-yl)-6-[1-methyl-3-(trifluoromethyl)pyrazol-4-yl]pyridazin-3-yl]methyl]urea]	2800 nM	3280 nM	4340 nM	166 nM	6610 nM	1520 nM
Cc1cc(CNC(=O)Nc2cc(OCCO)nc(C(F)(F)F)c2)nnc1-c1cn(C)nc1C(F)(F)F [Compound 4, 1-[2-(2-hydroxyethoxy)-6-(trifluoromethyl)-4-pyridyl]-3-[[5-methyl-6-[1-methyl-3-(trifluoromethyl)pyrazol-4-yl]pyridazin-3-yl]methyl]urea]	≥ 19800 nM	348 nM	652 nM	234 nM	≥ 19800 nM	873 nM
Cc1cc(NC(=O)NCc2cc(C)c(-c3cn(C)nc3C(F)(F)F)nn2)cc(OCC(F)F)n1 [Compound 75, 1-[2-(2,2-difluoroethoxy)-6-methyl-4-pyridyl]-3-[[5-methyl-6-[1-methyl-3-(trifluoromethyl)pyrazol-4-yl]pyridazin-3-yl]methyl]urea]	≥ 19800 nM	59 nM	223 nM	38 nM	2890 nM	282 nM
